Laboratory results published in patent US20210340629A1, “BIOMARKERS FOR CANCER THERAPY” (The Council of the Queensland Institute of Medical Research, priority 2018, published 2021).

Key:
H3K9me2 = assay: Immunoblotting analysis of global H3K9me2; assay type: cell-based, human; settings: D05 and C008 cell lines, as early as 8 hours and persisted to 24 hours, FIG. 3B
Experimental: For immunoblotting, protein whole cell lysates were prepared using RIPA lysis buffer containing 20 mM Tris, pH 8.0, 150 mM NaCl, 10% glycerol, 1% Nonidet P-40 containing protease inhibitor cocktail (Roche). Nuclear extracts were obtained using a standard high salt extraction buffer (20 mM HEPES (pH 7.9), 0.32 M NaCl, 1 mM EDTA, and 1 mM EGTA) supplemented with 1mM DU and protease inhibitor cocktail. Protein assays were performed according to the Bradford method using a protein assay kit (BioRad). […] of denatured proteins were separated using 10% sodium dodecyl sulfate-polyacrylamide gel electrophoresis (SDS-PAGE) and transferred to Polyvinylidene difluoride (PVDF) membranes. The membranes were blocked for 1 hour in 5% skim milk in Tris-buffered saline with Tween 20 (TBST; 10 mM Tris-HCl, 150 mM NaCl, 0.1% Tween 20). Immunoblotting was performed with primary anti G9a (#3306, Cell Signaling), H3K9me2 (ab 1220, Abcam), H3 (ab1791, Abcam) or Tubulin (ab6046, Abcam) and detected with either HRP-conjugated anti-rabbit (#7074, Cell Signaling Technology) or HRP-conjugated anti-mouse (#7076, Cell Signaling Technology). After applying ECL detection reagents (GE Healthcare), protein bands were visualized using X-ray film (Fujifilm).

[1] = test system: D05 and C092 melanoma cell lines; assay: Cell cycle analysis (flow cytometric analysis); assay type: cell-based, human; settings: data not shown
LC3B = assay: EGFP-LC3B immunofluorescence analysis (punctate pattern); assay type: cell-based, human; settings: D05 and C092 cell lines, 5 μM, 8 hours, data not shown
Experimental: Retroviral constructs expressing short hairpin RNA to G9a (shG9a) or a non-silencing control (shNS) were used as previously described (Casciello et al. (2017) Proc Natl Acad Sci USA 114, 7077-7082). pBABE-puro mCherry-EGFP-LC3B was obtained from Addgene (plasmid #22418) (N'Diaye et al. (2009) EMBO reports 10, 173-179). The viral supernatants were prepared by co-transfecting the constructs with pUMVC3 and pVSV-G into HEK293T cells using Superfect transfection reagent (Qiagen). The supernatants were harvested and used to infect cells in medium, which contained 8 μg/ml polybrene. Cell medium was replaced and fresh growth medium was added after 24 h. Cells were harvested 72 h later or selected using 1 μg/ml of Puromycin sulfate.
Stable cells expressing EGFP-LC3B construct were treated with DMSO, UNC0642 at 5 μM or 20 nM Bafilomycin A1 (Sigma Aldrich) for 8 hours. Images were taken with an EVOS FL auto fluorescent microscope (Invitrogen) and quantitated using ImageJ software.

MAP1LC3B = MAP1LC3B expression in excised D20 xenograft tumors (qRT-PCR, immunohistochemistry); assay type: in vivo, SCID mice; settings: 5 mg/kg
Experimental: Quantitative RT-PCR and ChIP assays were conducted as previously described (Lee et al. (2010) Mol Cell 39, 71-85). Briefly, total RNA was isolated from either the tumor cells or from xenografts using Trizol (Invitrogen) and reverse transcription was performed from 2 μg of total RNA using the Superscript III cDNA synthesis system (Invitrogen). The abundance of mRNA was detected by an ABI VIIA7 system with SYBR Green Master Mix (Life Technologies). Primer pairs were designed to amplify 90-150 bp mRNA specific fragments and were confirmed as unique products by melting curve analysis. The quantity of mRNA was calculated using the ΔΔCt method and normalized to HPRT. All reactions were performed in triplicates.
Groups of 8 SCID mice per treatment group were used for xenograft studies to ensure adequate power to detect biological differences. All experiments were approved by the QIMR Berghofer Medical Research Institute Animal Ethics Committee. […] Tumor volumes (width2×length/2) were measured using a digital calliper, and presented as mean±SD. […]
Tumor sections were fixed in 4% paraformaldehyde. […] Aperio ImageScope software was used for imaging and quantitation of 5 non-overlapping tumor regions and evaluating the number of positive pixels per unit area in each region. Empty areas were manually excluded from quantification.
Quantitative RT-PCR was performed as described above.

C092 cell line = assay: Cell viability of C092 with LC3B knock down following G9a inhibitor treatment; assay type: cell-based, human; settings: data not shown
Text: Therefore, the basal levels of important autophagy related proteins were examined in the melanoma cell lines used in this study. It is has been shown that the inhibition of G9a can cause an induction of the autophagy-related gene 5 (ATG5), Beclin-1 (known also as ATG6) and the conversion of microtubule-associated protein 1 light chain 3 beta (MAP1LC3B or LC3B for short) I (17 KDa) to LCB3 II (15 KDa) through proteolytic cleavage and lipidation (de Narvajas et al. (2013) and Li et a. (2015). These changes are considered a hallmark of mammalian autophagy. When cells undergo autophagy, conversion of a fraction of cytoplasmic LC3B Ito autophagic membrane form LC3B II can be detected by western blot or by immunofluorescence. This conversion correlates with autophagic activity (Kabeya et al (2000) Embo J 19, 5720-5728), therefore the levels of LC3B II can be considered a reliable marker of autophagy. […] To assess whether lowering LC3B levels in the C092 non-responsive cell line would allow increased sensitivity to the G9a inhibitor treatment, cell viability of C092 following G9a inhibitor treatment was assessed.

COc1cc2c(NC3CCN(C(C)C)CC3)nc(N3CCC(F)(F)CC3)nc2cc1OCCCN1CCCC1 [UNC0642]
global H3K9me2 (H3K9me2): reduction
increase in preG1 population ([1]; C092 (less G9a inhibitor responsive) cell line): absent
cell cycle status ([1]; D05 and C092, flow cytometric analysis): neither D05 nor C092 showed any changes in cell cycle status
increase in cells in preG1 phase ([1]; G9a inhibitor responsive cells (D05)): greater than 4 fold
cells in both G1 and G2/M phases [1]: reduction
distribution of EGFP-LC3B (punctate pattern) (LC3B): increase in punctate pattern
expression of the MAP1LC3B gene in tumors (quantitative real time PCR) (MAP1LC3B; compared to the vehicle treated group, P<0.01, FIG. 10C): statistically significant increase
level of MAP1LC3B in the excised tumors (immunohistochemical analysis) (MAP1LC3B; compared to vehicle, FIG. 10D): significantly increased
cell viability following G9a inhibitor treatment (C092 cell line): significantly reduced
